Measurements reported in patent US9695155B2, “Herbicidal substituted pyrimidinyloxy benzene compounds” (E. I. DU PONT DE NEMOURS AND COMPANY, priority 2013, dated 2017).

How the values were obtained:
[1] = system: Brazilian crabgrass; assay: Test E postemergence; type: in vivo, Digitaria horizontalis; settings: Digitaria horizontalis, post-emergence, read-out: Plant response rating, Crabgrass, Brazil
Description: (§1) Seeds of plant species selected from corn (Zea mays), soybean (Glycine max), velvetleaf (Abutilon theophrasti), lambsquarters (Chenopodium album), wild poinsettia (Euphorbia heterophylla), palmer pigweed (Amaranthus palmeri), waterhemp (common waterhemp, Amaranthus rudis), surinam grass (Brachiaria decumbens), large (Lg) crabgrass (Digitaria sanguinalis), Brazilian crabgrass (Digitaria horizontalis), fall panicum (Panicum dichotomiflorum), giant foxtail (Setaria faberii), green foxtail (Setaria viridis), goosegrass (Eleusine indica), johnsongrass (Sorghum halepense), ragweed (common ragweed, Ambrosia elatior), barnyardgrass (Echinochloa crus-galli), sandbur (southern sandbur, Cenchrus echinatus), arrowleaf sida (Sida rhombifolia), Italian ryegrass (Lolium multiflorum), dayflower (Virginia (VA) dayflower, Commelina virginica), field bindweed (Convolvulus arvensis), morningglory (Ipomoea coccinea), nightshade (eastern black nightshade, Solanum ptycanthum), kochia (Kochia scoparia), yellow nutsedge (Cyperus esculentus), cocklebur (common cocklebur, Xanthium strumarium), smartweed (ladysthumb smartweed, and hairy beggarticks (Bidens pilosa), were planted into a silt loam soil and treated preemergence with test chemicals formulated in a non-phytotoxic solvent mixture which included a surfactant.
(§2) At the same time, plants from these crop and weed species and also horseweed (Canada horseweed, Conyza canadensis), waterhemp_RES1, (ALS & Triazine resistant common waterhemp, Amaranthus rudis), and waterhemp_RES2, (ALS & HPPD resistant common waterhemp, Amaranthus rudis) were planted in pots containing Redi-Earth® planting medium (Scotts Company, 14111 Scottslawn Road, Marysville, Ohio 43041) comprising spaghnum peat moss, vermiculite, wetting agent and starter nutrients were treated with postemergence applications of test chemicals formulated in the same manner. Plants ranged in height from 2 to 18 cm for postemergence treatments (1- to 4-leaf stage). Treated plants and controls were maintained in a greenhouse for 14 to 21 days, after which time all species were compared to controls and visually evaluated. Plant response ratings, summarized in Table E, are based on a scale of 0 to 100 where 0 is no effect and 100 is complete control. A dash (-) response means no test result.

[2] = system: barnyardgrass; assay: Test E postemergence; type: in vivo, Echinochloa crus-galli; settings: Echinochloa crus-galli, post-emergence, read-out: Plant response rating, Barnyardgrass
Description: as §1, §2

[3] = system: soybean; assay: Test E postemergence; type: in vivo, Glycine max; settings: Glycine max, post-emergence
Description: as §1, §2

[4] = system: field violet; assay: Test D postemergence; type: in vivo, Viola arvensis
Description: (§3) Seeds of plant species selected from bluegrass (annual bluegrass, Poa annua), blackgrass (Alopecurus myosuroides), canarygrass (littleseed canarygrass, Phalaris minor), chickweed (common chickweed, Stellaria media), galium (catchweed bedstraw, Galium aparine), bromegrass, downy (downy bromegrass, Bromus tectorum), field poppy (Papaver rhoeas), field violet (Viola arvensis), green foxtail (Setaria viridis), deadnettle (henbit deadnettle, Lamium amplexicaule), Italian ryegrass (Lolium multiflorum), kochia (Kochia scoparia), lambsquarters (Chenopodium album), oilseed rape (Brassica napus), pigweed (Amaranthus retroflexus), chamomile (scentless chamomile, Matricaria inodora), Russian thistle (Salsola kali), speedwell (bird's-eye speedwell, Veronica persica), spring barley (Hordeum vulgare), spring wheat (Triticum aestivum), wild buckwheat (Polygonum convolvulus), wild mustard (Sinapis arvensis), wild oat (Avena fatua), wild radish (Raphanus raphanistrum), windgrass (Apera spica-venti), winter barley (Hordeum vulgare), and winter wheat (Triticum aestivum) were planted into a silt loam soil and treated preemergence with test chemicals formulated in a non-phytotoxic solvent mixture which included a surfactant.
(§4) At the same time, these species were planted in pots containing Redi-Earth® planting medium (Scotts Company, 14111 Scottslawn Road, Marysville, Ohio 43041) comprising spaghnum peat moss, vermiculite, wetting agent and starter nutrients and treated with postemergence applications of the test chemicals formulated in the same manner. Plants ranged in height from 2 to 18 cm (1- to 4-leaf stage). Treated plants and controls were maintained in a controlled growth environment for 7 to 21 days after which time all species were compared to controls and visually evaluated. Plant response ratings, summarized in Table D, are based on a scale of 0 to 100 where 0 is no effect and 100 is complete control. A dash (-) response means no test result.

[5] = system: speedwell; assay: Test D preemergence; type: in vivo, Veronica persica
Description: as §3, §4

[6] = system: oilseed rape; assay: Test D preemergence; type: in vivo, Brassica napus
Summary of the method: (§5)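 Greenhouse herbicide screen. Sowing into silt loam for preemergence application; foliar application to 2–18 cm seedlings in potting mix for postemergence. 0–100 visual control rating after 7–21 d.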

[7] = system: bluegrass; assay: Test D preemergence; type: in vivo, Poa annua
Description: as §3, §4

[8] = system: kochia; assay: Test D postemergence; type: in vivo, Kochia scoparia
Description: as §3, §4

[9] = system: pigweed; assay: Test D postemergence; type: in vivo, Amaranthus retroflexus
Summary of the method: as §5

[10] = system: canarygrass; assay: Test D postemergence; type: in vivo, Phalaris minor
Summary of the method: as §5

[11] = system: winter wheat; assay: Test D preemergence; type: in vivo, Triticum aestivum
Description: as §3, §4

[12] = system: spring wheat; assay: Test D preemergence; type: in vivo, Triticum aestivum
Description: as §3, §4

[13] = system: field violet; assay: Test D preemergence; type: in vivo, Viola arvensis
Summary of the method: as §5

[14] = Postemergence, 31 g ai/ha, scale 0 to 100
[15] = Postemergence, 62 g ai/ha, scale 0 to 100
[16] = Postemergence, 125 g ai/ha, scale 0 to 100
[17] = Postemergence, 250 g ai/ha, scale 0 to 100
[18] = postemergence, 16 g ai/ha, scale 0 to 100, 0 no effect, 100 complete control
[19] = 62 g ai/ha, scale 0 to 100 (0 no effect, 100 complete control)
[20] = 125 g ai/ha, scale 0 to 100 (0 no effect, 100 complete control)
[21] = 250 g ai/ha, scale 0 to 100 (0 no effect, 100 complete control)
[22] = 31 g ai/ha, scale 0 (no effect) to 100 (complete control)
[23] = 31 g ai/ha, scale 0 to 100 (0 no effect, 100 complete control)
[24] = 16 g ai/ha, scale 0 (no effect) to 100 (complete control)

Fc1cnc(Oc2ccccc2-n2cc(Br)cn2)nc1 [Compound 10, 2-[2-(4-bromo-1H-pyrazol-1-yl)phenoxy]-5-fluoropyrimidine]
0%: pest or weed control at 31 g/ha [1, 14] | pest or weed control at 62 g/ha [1, 15] | pest or weed control at 125 g/ha [1, 16] | pest or weed control at 16 g/ha [1, 18] | pest or weed control at 31 g/ha [2, 14] | pest or weed control at 62 g/ha [2, 15] | pest or weed control at 125 g/ha [2, 16] | pest or weed control at 250 g/ha [2, 17] | pest or weed control at 16 g/ha [2, 18]
95%: plant response (crop injury) rating, soybean, 0-100 scale at 250 g/ha [3, 17]
30%: plant response (crop injury) rating, soybean, 0-100 scale at 16 g/ha [3, 18]
50%: plant response (crop injury) rating, soybean, 0-100 scale at 31 g/ha [3, 14]
5%: pest or weed control at 250 g/ha [1, 17]
90%: plant response (crop injury) rating, soybean, 0-100 scale at 125 g/ha [3, 16]
75%: plant response (crop injury) rating, soybean, 0-100 scale at 62 g/ha [3, 15]

N#Cc1cccc(Oc2ncc(Cl)cn2)c1-n1cc(-n2ccc(C(F)(F)F)n2)cn1 [Compound 284]
15: Plant response rating, Bluegrass ([7]; 62 g ai/ha, scale 0-100) | Plant response rating, Wheat, Winter [11, 22]
25: Plant response rating, Bluegrass ([7]; 250 g ai/ha, scale 0-100) | Plant response rating, Canarygrass [10, 20] | Plant response rating, Canarygrass [10, 21] | Plant response rating, Wheat, Winter ([11]; 250 g ai/ha, scale 0-100)
45: Plant response rating, Field Violet [13, 22]
30: Plant response rating, Wheat, Spring ([12]; 250 g ai/ha, scale 0-100)
10: Plant response rating, Oilseed Rape ([6]; 125 g ai/ha, scale 0-100) | Plant response rating, Oilseed Rape ([6]; 250 g ai/ha, scale 0-100) | Plant response rating, Wheat, Spring [12, 22]
0: Plant response rating, Speedwell [5, 22] | Plant response rating, Oilseed Rape [6, 22] | Plant response rating, Oilseed Rape ([6]; 62 g ai/ha, scale 0-100) | Plant response rating, Bluegrass [7, 22]
100: Plant response rating, Field Violet ([4]; 31 g ai/ha, scale 0-100) | Plant response rating, Field Violet [4, 20] | Plant response rating, Field Violet [4, 21] | Plant response rating, Speedwell ([5]; 125 g ai/ha, scale 0-100) | Plant response rating, Speedwell ([5]; 250 g ai/ha, scale 0-100) | Plant response rating, Kochia ([8]; 31 g ai/ha, scale 0-100) | Plant response rating, Kochia [8, 19] | Plant response rating, Kochia [8, 20] | Plant response rating, Kochia [8, 21] | Plant response rating, Pigweed ([9]; 31 g ai/ha, scale 0-100) | Plant response rating, Pigweed [9, 19] | Plant response rating, Pigweed [9, 20] | Plant response rating, Pigweed [9, 21] | Plant response rating, Field Violet ([13]; 62 g ai/ha, scale 0-100) | Plant response rating, Field Violet ([13]; 125 g ai/ha, scale 0-100) | Plant response rating, Field Violet ([13]; 250 g ai/ha, scale 0-100)
20: Plant response rating, Bluegrass ([7]; 125 g ai/ha, scale 0-100) | Plant response rating, Canarygrass ([10]; 31 g ai/ha, scale 0-100) | Plant response rating, Canarygrass [10, 19] | Plant response rating, Wheat, Winter ([11]; 125 g ai/ha, scale 0-100) | Plant response rating, Wheat, Spring ([12]; 125 g ai/ha, scale 0-100)
85: Plant response rating, Field Violet [4, 19]

Clc1cnc(Oc2ccccc2-n2cc(Cl)cn2)nc1 [Compound 3]
90: Plant response rating, Pigweed [9, 21]
25: Plant response rating, Kochia [8, 20]
20: Plant response rating, Field Violet ([4]; 16 g ai/ha, scale 0-100) | Plant response rating, Field Violet [4, 21] | Plant response rating, Bluegrass ([7]; 125 g ai/ha, scale 0-100) | Plant response rating, Kochia ([8]; 16 g ai/ha, scale 0-100)
5: Plant response rating, Field Violet [4, 23] | Plant response rating, Field Violet [4, 19] | Plant response rating, Field Violet [4, 20] | Plant response rating, Kochia [8, 23] | Plant response rating, Kochia [8, 19]
100: Plant response rating, Speedwell [5, 24] | Plant response rating, Speedwell [5, 22] | Plant response rating, Speedwell ([5]; 62 g ai/ha, scale 0-100) | Plant response rating, Speedwell ([5]; 125 g ai/ha, scale 0-100) | Plant response rating, Speedwell ([5]; 250 g ai/ha, scale 0-100) | Plant response rating, Oilseed Rape ([6]; 125 g ai/ha, scale 0-100) | Plant response rating, Oilseed Rape ([6]; 250 g ai/ha, scale 0-100)
0: Plant response rating, Bluegrass [7, 24] | Plant response rating, Bluegrass ([7]; 31 g ai/ha, scale 0-100) | Plant response rating, Bluegrass ([7]; 62 g ai/ha, scale 0-100) | Plant response rating, Canarygrass [10, 23] | Plant response rating, Canarygrass [10, 19] | Plant response rating, Canarygrass [10, 20] | Plant response rating, Wheat, Winter [11, 24] | Plant response rating, Wheat, Winter [11, 22] | Plant response rating, Wheat, Winter ([11]; 62 g ai/ha, scale 0-100) | Plant response rating, Wheat, Winter ([11]; 125 g ai/ha, scale 0-100) | Plant response rating, Wheat, Winter ([11]; 250 g ai/ha, scale 0-100) | Plant response rating, Wheat, Spring [12, 24] | Plant response rating, Wheat, Spring [12, 22] | Plant response rating, Wheat, Spring ([12]; 62 g ai/ha, scale 0-100) | Plant response rating, Wheat, Spring ([12]; 125 g ai/ha, scale 0-100) | Plant response rating, Wheat, Spring ([12]; 250 g ai/ha, scale 0-100)
85: Plant response rating, Field Violet ([13]; 125 g ai/ha, scale 0-100) | Plant response rating, Field Violet ([13]; 250 g ai/ha, scale 0-100)
80: Plant response rating, Field Violet ([13]; 31 g ai/ha, scale 0-100) | Plant response rating, Field Violet ([13]; 62 g ai/ha, scale 0-100)
70: Plant response rating, Oilseed Rape ([6]; 62 g ai/ha, scale 0-100) | Plant response rating, Pigweed ([9]; 16 g ai/ha, scale 0-100) | Plant response rating, Pigweed [9, 23] | Plant response rating, Pigweed [9, 19] | Plant response rating, Pigweed [9, 20]
30: Plant response rating, Canarygrass ([10]; 16 g ai/ha, scale 0-100)
10: Plant response rating, Oilseed Rape [6, 24] | Plant response rating, Canarygrass [10, 21]
40: Plant response rating, Bluegrass ([7]; 250 g ai/ha, scale 0-100) | Plant response rating, Field Violet [13, 24]
75: Plant response rating, Oilseed Rape ([6]; 31 g ai/ha, scale 0-100)
55: Plant response rating, Kochia [8, 21]
